Source: patent US20230183656A1, “METHODS AND COMPOSITIONS FOR PURIFYING ADENO ASSOCIATED VIRUS PARTICLES OR ADENOVIRUSES” (Merck Patent GmbH, priority 2020, published 2023)

Assays:
[1] = cited from earlier work
[2] = system: AAV2; assay: AAV2 release after cell lysis (physical titer by ELISA, genome titer by qPCR); type: cell-based; conditions: for AAV2 viral titers after cell lysis: 90 min, 37° C., 0.5% Triton X-100, 0.5 M NaCl, or 0.5 M sodium chloride and 1% TDAO, FIG. 1 and 2; for increase of AAV2 dissociation by addition to 0.5 M NaCl: 1% detergent added to 0.5 M NaCl, FIG. 2
Description: (§1) An AAV2 suspension upstream process is performed including a cell lysis step using various single reagents, like Triton X-100 (T100) or TDAO at various concentrations or 0.5 M NaCl, all at 37° C. The samples were centrifuged at ~13000 g for 5 min at different time points post lysis, and supernatants were removed and stored at -70° C. for assays. Physical titers were measured by enzyme-linked immunosorbent assay (ELISA) using an AAV2 Titration ELISA kit (Progen) following manufacturer’s protocol, genome titers were measured by quantitative PCR (qPCR) targeting a specific sequence within the transfer vector. All reagents and assay protocols are from MilliporeSigma unless otherwise specified. Among all the conditions tested, 0.5 M NaCl was the only one capable of releasing significant amounts of AAV2 at physical titer of e10 vp/mL and genome titer of e9 gc/mL levels (FIG. 1). Moreover, time-dependent effects from 30 min to 90 min post lysis for all 3 single reagents, and concentration-dependent effects from 0.5% to 1% for both single detergents have been observed (FIG. 1).
The same process is performed as in Example 1 but with NaCl combined with different detergents.
To investigate the optimal concentration of TDAO in combination with 0.5 M NaCl, an AAV2 dissociation test using 0 to 4% of TDAO and including an additional lysis time of 60 min was performed. […] Furthermore, the best lysis time of 90 min was confirmed as before based on genome titers. When calculating % full viral particles (vp) as the ratio of genome titer to physical titer, it was noted that 2% TDAO also facilitated more release of full viral particles over time with ~100% full VP at 90 min post lysis due to unknown mechanisms (FIG. 4).

[3] = system: HEK293T-derived cells; assay: Turbidity post lysis and % cell lysis (ViCell XR) in 3L Mobius bioreactor; type: cell-based, human; conditions: AAV2, 3L Mobius at 72 hr PT; NaCl at 0.5 M; lysed cells to total cells before lysis
Description: Cell lysis performed according to the general procedure of Example 1 was performed with different reagents and compared in terms of turbidity reduction and lysis efficiency.
Each turbidity in Table 2 is an average of 1-3 bioreactors x 2 measurements. PT = post transfection. […] Cell counts were taken by ViCell XR before lysis and at 30 min post lysis, and % cell lysis was calculated as a ratio of lysed cells to total cells before lysis.

[4] = system: AAV9; assay: AAV9 release after cell lysis (titers as in Example 1); type: cell-based; conditions: with NaCl, FIG. 5
Description: as §1
An AAV9 suspension upstream process is performed as in Example 1 but using both single reagents and double reagents combined with NaCl.

## CCCCCCCCCCCC[N+](C)(C)[O-] [LDAO, N,N-Dimethyldode cylamine N-oxide]
[1]
  biodegradation in 28 days: 95%

## CCCCCCCCCC[N+](C)(C)[O-] [N,N-Dimethyldecyl amine N-oxide]
[1]
  biodegradation in 28 days: 97%

## CCCCCCCCCCCCCCCC[N+](C)(C)[O-] [N,N-Dimethylhexa decylamine N-oxide]
[1]
  biodegradation in 28 days: <88%

## CCCCCCCC[N+](C)(C)[O-] [N,N-Dimethyloctyl amine N-oxide]
[1]
  biodegradation in 28 days: 100%

## [Cl-].[Na+] [NaCl, sodium chloride, reference compound]
[2]
  AAV2 viral titers after cell lysis: significantly reduced viral titers
[3]
  % cell lysis after 30 min: 80%

## CCCCCCCCCCCCCC[N+](C)(C)[O-] [TDAO, N,N-Dimethyltertra decylamine N-oxide]
[2]; 0 to 4% of TDAO, genome titers, FIG. 3
  increase of AAV2 dissociation by addition of TDAO to 0.5 M NaCl: 3-5 fold
[2]
  increase of AAV2 dissociation by addition to 0.5 M NaCl: 3-9 fold
[2]; 2% TDAO with 0.5 M NaCl, 90 min post lysis, FIG. 4
  % full viral particles (ratio of genome titer to physical titer): ~ 100%
[4]
  AAV9 dissociation, double reagents with 2% TDAO compared to 1% TDAO: no benefits
[1]
  biodegradation in 28 days: 88%

## Triton X-100 [reference compound]
[2]
  increase of AAV2 dissociation by addition to 0.5 M NaCl: not
  AAV2 viral titers after cell lysis: significantly reduced viral titers
